Laboratory results: ChEMBL document CHEMBL3407392, “Design, syntheses, structure-activity relationships and docking studies of coumarin derivatives as novel selective ligands for the CB2 receptor” (Eur J Med Chem, 2015)

Key:
[1] = target: T1, Cannabinoid receptor 1 (Homo sapiens, UniProt P21554); assay: Agonist activity at CB1 receptor (unknown origin) expressed in CHO cells by calcium mobilization assay; assay type: functional, cell-based
[2] = target: T2, Cannabinoid receptor 2 (Homo sapiens, UniProt P34972); assay: Agonist activity at CB2 receptor (unknown origin) expressed in CHO cells by calcium mobilization assay; assay type: functional, cell-based
T2 sequence (P34972 whole entry): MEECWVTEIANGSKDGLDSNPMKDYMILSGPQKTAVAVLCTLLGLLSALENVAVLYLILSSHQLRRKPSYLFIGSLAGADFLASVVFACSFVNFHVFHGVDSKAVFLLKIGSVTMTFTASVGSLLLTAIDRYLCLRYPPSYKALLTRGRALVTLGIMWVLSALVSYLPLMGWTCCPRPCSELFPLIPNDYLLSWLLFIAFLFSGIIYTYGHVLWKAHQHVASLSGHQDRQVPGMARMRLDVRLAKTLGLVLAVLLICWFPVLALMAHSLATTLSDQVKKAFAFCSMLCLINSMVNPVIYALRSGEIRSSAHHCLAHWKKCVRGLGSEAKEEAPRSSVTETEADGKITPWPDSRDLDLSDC

[3] = species: Homo sapiens; assay: Selectivity index, ratio of EC50 for CB1 receptor (unknown origin) to EC50 for CB2 receptor (unknown origin)
[4] = target: T2, Cannabinoid receptor 2; assay: Binding affinity to CB2 receptor (unknown origin)
[5] = target: T1, Cannabinoid receptor 1; assay type: functional, cell-based, CHO
[6] = target: T2, Cannabinoid receptor 2; assay: Antagonist activity at CB2 receptor (unknown origin) expressed in CHO cells up to 10 uM incubated for 10 mins prior to CP55940 addition by calcium mobilization assay; assay type: functional, cell-based
[7] = species: Homo sapiens; assay: Selectivity index, ratio of IC50 for CB1 receptor (unknown origin) to IC50 for CB2 receptor (unknown origin)
[8] = target: T2, Cannabinoid receptor 2; assay: Agonist activity at CB2 receptor (unknown origin) expressed in CHO cells at 10 uM by calcium mobilization assay relative to control; assay type: functional, cell-based

T1 sequence (P21554 whole entry): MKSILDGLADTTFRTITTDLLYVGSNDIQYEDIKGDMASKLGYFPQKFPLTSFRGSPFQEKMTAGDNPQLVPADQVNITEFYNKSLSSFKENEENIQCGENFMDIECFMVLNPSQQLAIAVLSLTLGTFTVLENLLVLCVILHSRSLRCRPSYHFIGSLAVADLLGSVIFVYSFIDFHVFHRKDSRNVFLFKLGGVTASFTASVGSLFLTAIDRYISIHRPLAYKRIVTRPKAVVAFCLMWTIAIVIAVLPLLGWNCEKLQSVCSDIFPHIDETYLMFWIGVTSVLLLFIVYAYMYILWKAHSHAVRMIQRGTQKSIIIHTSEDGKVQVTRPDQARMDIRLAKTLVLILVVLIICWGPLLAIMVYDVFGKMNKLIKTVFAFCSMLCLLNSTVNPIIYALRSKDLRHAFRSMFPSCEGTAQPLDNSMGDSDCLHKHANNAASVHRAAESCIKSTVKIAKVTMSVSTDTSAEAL

Which results are given for CCCCOc1cccc2cc(C(=O)NC3CCCCC3)c(=O)oc12?
EC50 [1]: > 10 µM; EC50 [2]: 144 nM; Ratio EC50 [3]: > 69.4

Which EC50 [1] does the source give for CCCCOc1cccc2cc(C(=O)NCc3ccccc3)c(=O)oc12 here?
The EC50 was over 10 µM.

What about the EC50 [2] of the same molecule?
Its EC50 is over 10000 nM.

CCCCCOc1c(OC)ccc2cc(C(=O)N3CCCC(C(=O)OCC)C3)c(=O)[nH]c12 (configuration not stated) was tested. Which Ki [4] did it give?
Its Ki is 100 nM.

What does the source list for O=C(NC1CCCCC1)c1cc2cc(Br)cc(OCC3CC3)c2oc1=O?
IC50 [5]: > 10 µM; IC50 [6]: 746 nM; Ratio IC50 [7]: > 13.4

With CCCOc1c(OC)ccc2cc(C(=O)NC3CCCCC3)c(=O)oc12 as the molecule, how does the IC50 [5] read?
Its IC50 is over 10 µM.

And the IC50 [6]?
The IC50 was 807 nM.

What about the Ratio IC50 [7] of the same molecule?
The Ratio IC50 was over 12.4.

For CCCCCOc1cc(Br)cc2cc(C(=O)NC3CCCCC3)c(=O)oc12, which IC50 [5] is on record?
The IC50 was over 10 µM.

And the IC50 [6]?
The IC50 was 2190 nM.

And the Ratio IC50 [7]?
Its Ratio IC50 is 4.6.

How did the Ki [4] turn out when CCCCCNc1c(OC)ccc2c1CN(CCc1ccc(O)cc1)C2=O was run?
Its Ki is 0.088 nM.

CCCCCOc1cccc2cc(C(=O)NC3CCCCC3)c(=O)oc12 was tested. Which EC50 [1] did it give?
The EC50 was over 10 µM.

What about the EC50 [2] of the same molecule?
The EC50 was 245 nM.

What about the Ratio EC50 [3] of the same molecule?
Its Ratio EC50 is over 40.8.

For CCCCOc1c(OC)ccc2cc(C(=O)NCC3CC3)c(=O)oc12, which IC50 [5] is on record?
Its IC50 is over 10 µM.

And the IC50 [6]?
Its IC50 is 1180 nM.

What about the Ratio IC50 [7] of the same molecule?
The Ratio IC50 was over 8.5.

Which EC50 [1] does the source give for CCCCOc1cccc2cc(C(=O)NN3CCOCC3)c(=O)oc12 here?
Its EC50 is over 10 µM.

What about the EC50 [2] of the same molecule?
Its EC50 is over 10000 nM.

For CCCCCOc1ccc(C(=O)NCCc2ccc(N)cc2)cc1SCCCCC, which Ki [4] is on record?
Its Ki is 1.9 nM.

CCCCCSc1cc(/C=C/C(=O)NCCc2ccc(O)cc2)ccc1OC was tested. Which Ki [4] did it give?
Its Ki is 1.1 nM.

With O=C(NC1CCCCC1)c1cc2cccc(OCc3ccccc3)c2oc1=O as the molecule, how does the EC50 [1] read?
The EC50 was over 10 µM.

What about the Activity [8] of the same molecule?
The Activity was 33%.

Which Ki [4] does the source give for CCCCCOc1c(OC)ccc2c1CN(CCc1ccc(N)cc1)C2=O here?
The Ki was 14 nM.

How did the Ki [4] turn out when CCCCCOc1cc(C(=O)NCCc2ccncc2)ccc1OC was run?
Its Ki is 73 nM.

Which results are given for CCCCOc1cccc2cc(C(=O)NC(C)CCC)c(=O)oc12 (configuration not stated)?
EC50 [1]: > 10 µM; EC50 [2]: 321 nM; Ratio EC50 [3]: > 31.2

How did the EC50 [1] turn out when O=C(NCC1CCOCC1)c1cnc(Nc2ccc(Cl)cc2Cl)nc1C(F)(F)F [GW842166X] was run?
The EC50 was over 10 µM.

And the EC50 [2]?
Its EC50 is 431 nM.

What about the Ratio EC50 [3] of the same molecule?
Its Ratio EC50 is over 23.2.

For CCCCOc1c(OC)ccc2cc(C(=O)NCCc3ccccc3)c(=O)[nH]c12, which Ki [4] is on record?
The Ki was 0.33 nM.

Which EC50 [1] does the source give for CCCCOc1cccc2cc(C(=O)NC(C)C(C)C)c(=O)oc12 (configuration not stated) here?
Its EC50 is over 10 µM.

And the Activity [8]?
Its Activity is 41%.

With CCCCCOc1cc(C(=O)NC2CCc3cc(O)c(O)cc3C2)ccc1OC (configuration not stated) as the molecule, how does the Ki [4] read?
The Ki was 18 nM.

How did the EC50 [1] turn out when CCCCOc1cccc2cc(C(=O)NC(C)(C)C)c(=O)oc12 was run?
Its EC50 is over 10 µM.

What about the EC50 [2] of the same molecule?
Its EC50 is 972 nM.

And the Ratio EC50 [3]?
Its Ratio EC50 is over 10.3.

Which results are given for CCCCCOc1c(OC)ccc2cc(C(=O)NC3CCCCC3)c(=O)oc12?
IC50 [5]: > 10 µM; IC50 [6]: 61 nM; Ratio IC50 [7]: > 164

Which results are given for CCCCOc1cc(Br)cc2cc(C(=O)NN3CCOCC3)c(=O)oc12?
IC50 [5]: > 10 µM; IC50 [6]: > 10000 nM

Which Ki [4] does the source give for CCCCCOc1c(OC)ccc2cc(C(=O)N3CCCc4ccccc4C3)c(=O)[nH]c12 here?
The Ki was 118 nM.

What does the source list for CCCCOc1cccc2cc(C(=O)NC(C)C)c(=O)oc12?
EC50 [1]: > 10 µM; EC50 [2]: 103 nM; Ratio EC50 [3]: > 97.1

What does the source list for CCCCOc1c(OC)ccc2cc(C(=O)NC3CCCCC3)c(=O)oc12?
IC50 [5]: > 10 µM; IC50 [6]: 22 nM; Ratio IC50 [7]: > 454

For CCCCOc1cc(Br)cc2cc(C(=O)NC3CC3)c(=O)oc12, which IC50 [5] is on record?
The IC50 was over 10 µM.

What about the IC50 [6] of the same molecule?
The IC50 was over 10000 nM.

Which results are given for CCCCOc1c(OC)ccc2cc(C(=O)NC(CC)CC)c(=O)oc12?
IC50 [5]: > 10 µM; IC50 [6]: 20 nM; Ratio IC50 [7]: > 500

Which EC50 [1] does the source give for CCCCNC(=O)c1cc2cccc(OCCCC)c2oc1=O here?
The EC50 was over 10 µM.

And the EC50 [2]?
The EC50 was over 10000 nM.
